Source: patent publication US20260092057A1, “BCL-XL/BCL-2 DEGRADERS AND USES THEREOF” (Kymera Therapeutics, Inc., priority 2022, published 2026)
Where two headings read alike, the source gives them in different places.

Key:
MOLT-4 cells = assay: CTG (CellTiter-Glo) cell viability assay, MOLT-4; format: cell-based; details: MOLT-4, 3 day, read-out: CTG Cell Viability Assay - MOLT-4 3 day: Average external-IC50
Description: (§1) Compound-mediated viability effect on MOLT-4 and Caki-2 was quantitatively determined using the CellTiter-Glo® Luminescent Cell Viability Assay kit from Promega (Catalog number G7570) following manufacturer's recommended procedures. Briefly, MOLT-4 and Caki-2 cells were seeded into 384 well plates (Grenier Bio-One, Catalog number 781080) with a density of 10,000 cells per well. Compounds were then added to the assay plate with final top concentration of 10 µM and 1:3 dilution series with total of 9 doses. The final DMSO concentration is normalized to 0.2%. The assay plates were incubated at 37° C. for 3 days under 5% CO2. Then the assay plate was equilibrated at room temperature for 10 minutes. To determine cell viability, 30 uL CellTiter Glo reagent was added to each well and the assay plate was centrifuged at 1000 rpm for 30 second, incubated at room temperature for 10 min, and analyzed by detecting the luminescence using a multimode plate reader (EnVision 2105, PerkinElmer). The data was then analyzed by software Prism 7.0 from GraphPad and the dose response curves are fit using a three-parameter logistic equation to calculate IC50.
(§2) The letter codes for MOLT-4 IC50 include: A (<0.1 μM); B (0.1-1.0 μM); C (>1.0-3.0 μM); and D (>3.0 μM). The letter codes for Caki-2 IC50 include: A (<5 μM); B (5-10 μM); C (>10-30.0 μM); and D (>30.0 μM).

Caki-2 cells = assay: CTG (CellTiter-Glo) cell viability assay, Caki-2; format: cell-based; details: Caki-2, 3-day, read-out: CTG Chempartner/PHA- Caki-2 3-day: Average external-IC50
Description: as §1, §2

IC50 (MOLT-4 cells; Homo sapiens, MOLT-4, 72 h) [nM]	IC50 (MOLT-4 cells) [nM]	SMILES	IC50 (Caki-2 cells; Homo sapiens, CAKI-2, 72 h) [nM]	IC50 (Caki-2 cells) [nM]
100 to 1000		Cc1ncsc1-c1ccc([C@H](C)NC(=O)[C@@H]2C[C@@H](O)CN2C(=O)[C@@H](NC(=O)CCCCCC(=O)N[C@H]2CCN(CCCNc3ccc(S(=O)(=O)NC(=O)c4ccc(N5CCN(CC6=C(c7ccc(Cl)cc7)CC(C)(C)CC6)CC5)cc4Oc4cnc5[nH]ccc5c4)cc3S(=O)(=O)C(F)(F)F)C2)C(C)(C)C)cc1 [I-96]	> 30000	
> 3000		Cc1ncsc1-c1ccc([C@H](C)NC(=O)[C@@H]2C[C@@H](O)CN2C(=O)[C@@H](NC(=O)CCCCCC(=O)N2CCN(CCNc3ccc(S(=O)(=O)NC(=O)c4ccc(N5CCN(CC6=C(c7ccc(Cl)cc7)CC(C)(C)CC6)CC5)cc4Oc4cnc5[nH]ccc5c4)cc3S(=O)(=O)C(F)(F)F)CC2)C(C)(C)C)cc1 [I-97]	> 30000	
> 3000		Cc1ncsc1-c1ccc([C@H](C)NC(=O)[C@@H]2C[C@@H](O)CN2C(=O)[C@@H](NC(=O)CCCCCC(=O)N2CCN(c3ccc(-c4ccc(Cl)cc4)c(CN4CCN(c5ccc(C(=O)NS(=O)(=O)c6ccc(NCCCN(C)C)c(S(=O)(=O)C(F)(F)F)c6)c(Oc6cnc7[nH]ccc7c6)c5)CC4)c3)CC2)C(C)(C)C)cc1 [I-99]	> 30000	
> 3000		Cc1ncsc1-c1ccc([C@H](C)NC(=O)[C@@H]2C[C@@H](O)CN2C(=O)[C@@H](NC(=O)CCCCCN(CCO)CCCNc2ccc(S(=O)(=O)NC(=O)c3ccc(N4CCN(CC5=C(c6ccc(Cl)cc6)CC(C)(C)CC5)CC4)cc3Oc3cnc4[nH]ccc4c3)cc2S(=O)(=O)C(F)(F)F)C(C)(C)C)cc1 [I-100]	> 30000	
> 3000		Cc1ncsc1-c1ccc([C@H](C)NC(=O)[C@@H]2C[C@@H](O)CN2C(=O)[C@@H](NC(=O)CCCc2ccc(NCCNc3ccc(S(=O)(=O)NC(=O)c4ccc(N5CCN(CC6=C(c7ccc(Cl)cc7)CC(C)(C)CC6)CC5)cc4Oc4cnc5[nH]ccc5c4)cc3S(=O)(=O)C(F)(F)F)cc2)C(C)(C)C)cc1 [I-101]	> 30000	
100 to 1000		C#Cc1ccc([C@H](C)NC(=O)[C@@H]2C[C@@H](O)CN2C(=O)[C@@H](NC(=O)CCCCCC(=O)N2CCN(CCCNc3ccc(S(=O)(=O)NC(=O)c4ccc(N5CCN(CC6=C(c7ccc(Cl)cc7)CC(C)(C)CC6)CC5)cc4Oc4cnc5[nH]ccc5c4)cc3S(=O)(=O)C(F)(F)F)CC2)C(C)(C)C)c(OC)c1 [I-103]	> 30000	
> 3000		C#Cc1ccc(CNC(=O)[C@@H]2C[C@@H](O)CN2C(=O)[C@@H](NC(=O)C2(F)CC2)C(C)(C)C)c(OCCCCCCC(=O)N2CCN(CCCNc3ccc(S(=O)(=O)NC(=O)c4ccc(N5CCN(CC6=C(c7ccc(Cl)cc7)CC(C)(C)CC6)CC5)cc4Oc4cnc5[nH]ccc5c4)cc3S(=O)(=O)C(F)(F)F)CC2)c1 [I-104]	> 30000	
100 to 1000		Cc1ncsc1-c1ccc([C@H](C)NC(=O)[C@@H]2C[C@@H](O)CN2C(=O)[C@@H](NC(=O)CCCCCC(=O)N2CC3(CN(CCCNc4ccc(S(=O)(=O)NC(=O)c5ccc(N6CCN(CC7=C(c8ccc(Cl)cc8)CC(C)(C)CC7)CC6)cc5Oc5cnc6[nH]ccc6c5)cc4S(=O)(=O)C(F)(F)F)C3)C2)C(C)(C)C)cc1 [I-107]	> 30000	
100 to 1000		Cc1ncsc1-c1ccc([C@H](C)NC(=O)[C@@H]2C[C@@H](O)CN2C(=O)[C@@H](NC(=O)CCCC(=O)N2CCN(CC[C@H](CSc3ccccc3)Nc3ccc(S(=O)(=O)NC(=O)c4ccc(N5CCC([C@@H](O)c6ccccc6-c6ccc(Cl)cc6)CC5)cc4)cc3S(=O)(=O)C(F)(F)F)CC2)C(C)(C)C)cc1 [I-110]	> 30000	
> 3000		Cc1ncsc1-c1ccc([C@H](C)NC(=O)[C@@H]2C[C@@H](O)CN2C(=O)[C@@H](NC(=O)CCCCCC(=O)N2CCN(Cc3ccc(-c4ccc(Cl)cc4)c([C@H](O)C4CCN(c5ccc(C(=O)NS(=O)(=O)c6ccc(NCCCN(C)C)c(S(=O)(=O)C(F)(F)F)c6)c(Oc6cnc7[nH]ccc7c6)c5)CC4)c3)CC2)C(C)(C)C)cc1 [I-111]	> 30000	
> 3000		Cc1ncsc1-c1ccc([C@H](C)NC(=O)[C@@H]2C[C@@H](O)CN2C(=O)[C@@H](NC(=O)CCCCCC(=O)N2CCN(Cc3ccc(-c4ccc(Cl)cc4)c([C@@H](O)C4CCN(c5ccc(C(=O)NS(=O)(=O)c6ccc(NCCCN(C)C)c(S(=O)(=O)C(F)(F)F)c6)c(Oc6cnc7[nH]ccc7c6)c5)CC4)c3)CC2)C(C)(C)C)cc1 [I-112]	> 30000	
> 3000		Cc1ncsc1-c1ccc([C@H](C)NC(=O)[C@@H]2C[C@@H](O)CN2C(=O)[C@@H](NC(=O)CNCCCNc2ccc(S(=O)(=O)NC(=O)c3ccc(N4CCN(CC5=C(c6ccc(Cl)cc6)CC(C)(C)CC5)CC4)cc3Oc3cnc4[nH]ccc4c3)cc2S(=O)(=O)C(F)(F)F)C(C)(C)C)cc1 [I-115]	> 30000	
> 3000		Cc1ncsc1-c1ccc([C@H](C)NC(=O)[C@@H]2C[C@@H](O)CN2C(=O)[C@@H](NC(=O)C2CCC3(CC2)CCN(CCCNc2ccc(S(=O)(=O)NC(=O)c4ccc(N5CCN(CC6=C(c7ccc(Cl)cc7)CC(C)(C)CC6)CC5)cc4Oc4cnc5[nH]ccc5c4)cc2S(=O)(=O)C(F)(F)F)CC3)C(C)(C)C)cc1 [I-116]	> 30000	
> 3000		Cc1ncsc1-c1ccc([C@H](C)NC(=O)[C@@H]2C[C@@H](O)CN2C(=O)[C@@H](NC(=O)C#CC2CCN(CCCNc3ccc(S(=O)(=O)NC(=O)c4ccc(N5CCC([C@@H](O)c6ccccc6-c6ccc(Cl)cc6)CC5)cc4Oc4cnc5[nH]ccc5c4)cc3S(=O)(=O)C(F)(F)F)CC2)C(C)(C)C)cc1 [I-117]	> 30000	
> 3000		Cc1ncsc1-c1ccc([C@H](C)NC(=O)[C@@H]2C[C@@H](O)CN2C(=O)[C@@H](NC(=O)CCC(=O)N2CCN(CC[C@H](CSc3ccccc3)Nc3ccc(S(=O)(=O)NC(=O)c4ccc(N5CCC([C@@H](O)c6ccccc6-c6ccc(Cl)cc6)CC5)cc4)cc3S(=O)(=O)C(F)(F)F)CC2)C(C)(C)C)cc1 [I-119]	> 30000	
> 3000		Cc1ncsc1-c1ccc([C@H](C)NC(=O)[C@@H]2C[C@@H](O)CN2C(=O)[C@@H](NC(=O)C2CCN(c3ccc(NC(=O)c4ccc(-c5ccc(Cl)cc5)c([C@@H](O)C5CCN(c6ccc(C(=O)NS(=O)(=O)c7ccc(N[C@H](CCN(C)CCO)CSc8ccccc8)c(S(=O)(=O)C(F)(F)F)c7)cc6)CC5)c4)cc3)CC2)C(C)(C)C)cc1 [I-123]	> 30000	
> 3000		Cc1ncsc1-c1ccc([C@H](C)NC(=O)[C@@H]2C[C@@H](O)CN2C(=O)[C@@H](NC(=O)CCC2CCN(CCCNc3ccc(S(=O)(=O)NC(=O)c4ccc(N5CCN([C@@H](O)c6ccccc6-c6ccc(Cl)cc6)CC5)cc4Oc4cnc5[nH]ccc5c4)cc3S(=O)(=O)C(F)(F)F)CC2)C(C)(C)C)cc1 [I-128]	> 30000	
> 3000		Cc1ncsc1-c1ccc([C@H](C)NC(=O)[C@@H]2C[C@@H](O)CN2C(=O)[C@@H](NC(=O)CCC2CCN(CCCNc3ccc(S(=O)(=O)NC(=O)c4ccc(N5CCN([C@H](O)c6ccccc6-c6ccc(Cl)cc6)CC5)cc4Oc4cnc5[nH]ccc5c4)cc3S(=O)(=O)C(F)(F)F)CC2)C(C)(C)C)cc1 [I-129]	> 30000	
	1000 to 3000	Cc1ncsc1-c1ccc([C@H](C)NC(=O)[C@@H]2C[C@@H](O)CN2C(=O)[C@@H](NC(=O)CCCCCC(=O)N2CCN(C[C@]3(C)CCC(c4ccc(Cl)cc4)=C(CN4CCN(c5ccc(C(=O)NS(=O)(=O)c6ccc(NCCCN7CCOCC7)c(S(=O)(=O)C(F)(F)F)c6)c(Oc6cnc7[nH]ccc7c6)c5)CC4)C3)CC2)C(C)(C)C)cc1 [I-130]	> 30000	
	100 to 1000	Cc1ncsc1-c1ccc([C@H](C)NC(=O)[C@@H]2C[C@@H](O)CN2C(=O)[C@@H](NC(=O)CCCCCC(=O)N2CCN(C[C@]3(C)CCC(c4ccc(Cl)cc4)=C(CN4CCN(c5ccc(C(=O)NS(=O)(=O)c6ccc(NCCCN7CCOCC7)c(S(=O)(=O)C(F)(F)F)c6)c(Oc6cnc7[nH]ccc7c6)c5)CC4)C3)CC2)C(C)(C)C)cc1 [I-132]		> 30000
100 to 1000		COc1ccc(Oc2cc(N3CCN(CC4=C(c5ccc(Cl)cc5)CC(C)(C)CC4)CC3)ccc2C(=O)NS(=O)(=O)c2ccc(NCCCN3CCN(C(=O)CCCCCC(=O)N[C@H](C(=O)C4C[C@H](O)C[C@H]4C(=O)C[C@@H](C)c4ccc(-c5scnc5C)cc4)C(C)(C)C)CC3)c(S(=O)(=O)C(F)(F)F)c2)cc1 (stereo partly shown) [I-136]	> 30000	
< 100		Cc1ncsc1-c1ccc([C@H](C)NC(=O)[C@@H]2C[C@@H](O)CN2C(=O)[C@@H](NC(=O)CCCCCCN2CCN(CCCNc3ccc(S(=O)(=O)NC(=O)c4ccc(N5CCN(CC6=C(c7ccc(Cl)cc7)CC(C)(C)CC6)CC5)cc4Oc4cnc5[nH]ccc5c4)cc3S(=O)(=O)C(F)(F)F)CC2)C(C)(C)C)cc1 [I-137]	> 30000	
100 to 1000		C#Cc1ccc([C@H](C)NC(=O)[C@@H]2C[C@@H](O)CN2C(=O)[C@@H](NC(=O)CCCCCCC(=O)N2CCN(C[C@]3(C)CCC(c4ccc(Cl)cc4)=C(CN4CCN(c5ccc(C(=O)NS(=O)(=O)c6ccc(NCCCN7CCOCC7)c(S(=O)(=O)C(F)(F)F)c6)c(Oc6cnc7[nH]ccc7c6)c5)CC4)C3)CC2)C(C)(C)C)cc1 [I-138]	10000 to 30000	
